Among the test systems are TK-10 renal; NCI/ADR-RES ovarian; HL-60(TB) leukemia; SK-MEL-5 melanoma; MDA-MB-435; OVCAR-8 ovarian; PC-3 prostate; OVCAR-3 ovarian; HCT-116 colon; SK-MEL-28 melanoma.
Holding throughout (assay): DTP human tumour cell line panel, 48 h

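Results reflect a 48-hour exposure of cells in 96-well plates to compound at five concentrations. GI50: concentration for 50% inhibition of growth. TGI: concentration producing complete growth inhibition.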 Bounds are passed on as bounds.

Usually GI50 stands for the concentration at which growth is held to half of that of the control. The term TGI denotes the concentration giving total growth inhibition. Low values mean more potent growth arrest, high ones less potent growth arrest.

Turning to `C=C[C@@H]1CCC/C=C/[C@@H]2C[C@H](O)C[C@H]2[C@H](O)/C=C/C(=O)O1`, the GI50 in the test with TK-10 renal is 0.554 µM; in the test with NCI/ADR-RES ovarian it was 0.365 µM; with HL-60(TB) leukemia, 2.23 µM; in the test with SK-MEL-5 melanoma, 0.175 µM; with MDA-MB-435, 0.435 µM; in the test with OVCAR-8 ovarian it was 0.44 µM. The GI50 is 0.785 µM in the test on PC-3 prostate, 0.427 µM in the test with OVCAR-3 ovarian, 0.866 µM in the test with HCT-116 colon and 0.34 µM in the test on SK-MEL-28 melanoma. In addition, the TGI in the test on TK-10 renal was 19.8 µM; in the test with NCI/ADR-RES ovarian it was 11.6 µM; in the test with HL-60(TB) leukemia, > 25.2 µM; in the test with SK-MEL-5 melanoma, 0.331 µM; with MDA-MB-435, > 100 µM; with OVCAR-8 ovarian it was > 100 µM. The TGI in the test on PC-3 prostate is > 100 µM; in the test with OVCAR-3 ovarian it was 4.18 µM; in the test with HCT-116 colon, 2.49 µM; in the test with SK-MEL-28 melanoma, 1.2 µM.
Take `Cc1ccc(NC(=O)CCc2nnc3s/c(=C\C=C\c4ccccc4)c(=O)n23)cc1`: the TGI in the test on TK-10 renal is > 100 µM; with NCI/ADR-RES ovarian it was > 78.6 µM; in the test on HL-60(TB) leukemia, > 79.7 µM; with SK-MEL-5 melanoma, > 100 µM; with MDA-MB-435, > 100 µM; in the test on OVCAR-8 ovarian, 77.4 µM. For the same molecule, the total growth inhibition concentration (TGI) in the test with PC-3 prostate is > 100 µM; in the test on OVCAR-3 ovarian, > 87.2 µM; in the test on HCT-116 colon it was > 100 µM; in the test with SK-MEL-28 melanoma, > 100 µM.
As for `O=C(Nc1ccc(Cl)cc1)c1cc(NCc2cc(O)ccc2O)ccc1O`, the GI50 in the test on TK-10 renal was 11.1 µM; with NCI/ADR-RES ovarian, 4.43 µM; in the test on HL-60(TB) leukemia it was 1.4 µM; in the test on SK-MEL-5 melanoma, 6.12 µM; in the test on MDA-MB-435 it was 12 µM; in the test on OVCAR-8 ovarian, 4.35 µM. Moreover, the GI50 is 1.89 µM with PC-3 prostate, 2.9 µM with OVCAR-3 ovarian, 3.48 µM with HCT-116 colon and 10.1 µM in the test on SK-MEL-28 melanoma. Further, the TGI with TK-10 renal worked out at 23.6 µM; with NCI/ADR-RES ovarian it was 62.9 µM; with HL-60(TB) leukemia, 4.86 µM; with SK-MEL-5 melanoma, 20 µM; in the test with MDA-MB-435, 27.2 µM; with OVCAR-8 ovarian, 20.1 µM. Besides, the TGI with PC-3 prostate worked out at 4.92 µM; in the test with OVCAR-3 ovarian, 9.9 µM; in the test with HCT-116 colon it was 18.2 µM; in the test on SK-MEL-28 melanoma it was 22.4 µM.
Turning to `CCOc1ccc(Nc2ccnc3cc(Cl)ccc23)cc1`, the GI50 was > 100 µM with TK-10 renal; > 100 µM in the test on NCI/ADR-RES ovarian; > 100 µM in the test with HL-60(TB) leukemia; > 100 µM in the test with SK-MEL-5 melanoma; > 100 µM with MDA-MB-435; 79.9 µM with OVCAR-8 ovarian. Also, the GI50 in the test on PC-3 prostate was > 100 µM; with OVCAR-3 ovarian it was > 100 µM; in the test on HCT-116 colon, 35 µM; in the test with SK-MEL-28 melanoma, > 100 µM. Besides, the TGI in the test on TK-10 renal, in the test with NCI/ADR-RES ovarian, with HL-60(TB) leukemia, with SK-MEL-5 melanoma, in the test with MDA-MB-435 and in the test with OVCAR-8 ovarian was > 100 µM in each case. Also, the TGI in the test on PC-3 prostate, in the test on OVCAR-3 ovarian, with HCT-116 colon and in the test on SK-MEL-28 melanoma was > 100 µM in each case.
Consider `O=c1cc(-c2ccccc2)oc2c(O)c(O)ccc12`, for which the GI50 is 7.5 µM in the test on TK-10 renal; 4.04 µM with NCI/ADR-RES ovarian; 11.1 µM in the test on HL-60(TB) leukemia; 12.5 µM in the test with SK-MEL-5 melanoma; 13 µM in the test on MDA-MB-435; 5.65 µM with OVCAR-8 ovarian. For the same molecule, the GI50 in the test on PC-3 prostate is 7.74 µM; with OVCAR-3 ovarian, 2.19 µM; in the test with HCT-116 colon, 4.01 µM; in the test on SK-MEL-28 melanoma, 11.4 µM. The concentration for total growth inhibition (TGI) with TK-10 renal is 71.1 µM; in the test on NCI/ADR-RES ovarian, 67.5 µM; with HL-60(TB) leukemia, 55.3 µM; in the test on SK-MEL-5 melanoma, 45.2 µM; in the test with MDA-MB-435, > 100 µM; in the test with OVCAR-8 ovarian, > 100 µM. Further, the TGI in the test on PC-3 prostate was > 100 µM; with OVCAR-3 ovarian it was 6.18 µM; with HCT-116 colon it was > 100 µM; in the test on SK-MEL-28 melanoma, > 100 µM.
With `NC(CCl)=NCC12CC3CC(CC(C3)C1)C2`, the GI50 in the test on TK-10 renal was 1.31 µM; in the test on NCI/ADR-RES ovarian it was 0.625 µM; in the test with HL-60(TB) leukemia, 1.06 µM; in the test with SK-MEL-5 melanoma it was 0.973 µM; in the test with MDA-MB-435, 0.474 µM; in the test with OVCAR-8 ovarian, 0.877 µM. Also, the GI50 in the test on PC-3 prostate was 2.05 µM; in the test on OVCAR-3 ovarian, 0.687 µM; in the test with HCT-116 colon, 0.41 µM; in the test with SK-MEL-28 melanoma, 1.58 µM. Also, the TGI with TK-10 renal came out at 9.14 µM; with NCI/ADR-RES ovarian, 14.4 µM; in the test with HL-60(TB) leukemia it was 3.78 µM; with SK-MEL-5 melanoma, 3.79 µM; in the test on MDA-MB-435 it was 7.11 µM; in the test on OVCAR-8 ovarian, 19.4 µM. Also, the TGI in the test with PC-3 prostate came to 13.3 µM; in the test with OVCAR-3 ovarian, 7.23 µM; in the test on HCT-116 colon, 2.56 µM; in the test on SK-MEL-28 melanoma it was 15.5 µM.
In the case of `FC(F)(F)c1cccc(Oc2ccc(Nc3ncnc4ccc(OCCCN5CCOCC5)cc34)cc2Cl)c1`, the GI50 in the test with TK-10 renal was 2.02 µM; in the test with NCI/ADR-RES ovarian, 2.82 µM; in the test with HL-60(TB) leukemia it was 2.03 µM; in the test on SK-MEL-5 melanoma, 1.75 µM; with MDA-MB-435, 1.63 µM; in the test with OVCAR-8 ovarian it was 3.22 µM. Also, the GI50 in the test on PC-3 prostate is 2.4 µM; in the test with OVCAR-3 ovarian, 1.46 µM; in the test on HCT-116 colon, 1.62 µM; in the test with SK-MEL-28 melanoma it was 1.64 µM. Besides, the TGI turned out to be 9.74 µM in the test with TK-10 renal; 13.8 µM with NCI/ADR-RES ovarian; 4.88 µM in the test on HL-60(TB) leukemia; 3.15 µM with SK-MEL-5 melanoma; 3.39 µM in the test with MDA-MB-435; 21.2 µM with OVCAR-8 ovarian. For the same molecule, the TGI in the test on PC-3 prostate amounted to 8.58 µM; in the test with OVCAR-3 ovarian, 3.56 µM; with HCT-116 colon, 3.08 µM; in the test with SK-MEL-28 melanoma, 3.01 µM.
Turning to `O=C(N/N=C/c1ccc([N+](=O)[O-])cc1)c1ccccc1Nc1ccnc(C(F)(F)F)c1`, the GI50 with TK-10 renal was 0.0799 µM; with NCI/ADR-RES ovarian, 16.8 µM; in the test on HL-60(TB) leukemia it was 14.2 µM; in the test on SK-MEL-5 melanoma, 19.1 µM; in the test on MDA-MB-435, 14.7 µM; in the test with OVCAR-8 ovarian it was 11.6 µM. Also, the GI50 in the test on PC-3 prostate was 12.9 µM; in the test with OVCAR-3 ovarian, 4.54 µM; with HCT-116 colon it was 20 µM; in the test with SK-MEL-28 melanoma it was 14.8 µM. The total growth inhibition concentration (TGI) in the test on TK-10 renal was determined as 20.2 µM; in the test with NCI/ADR-RES ovarian it was 58.7 µM; in the test on HL-60(TB) leukemia, 47.3 µM; with SK-MEL-5 melanoma it was 42.3 µM; in the test with MDA-MB-435, 35.1 µM; in the test with OVCAR-8 ovarian, 49.8 µM. Besides, the total growth inhibition concentration (TGI) with PC-3 prostate is 29.7 µM; with OVCAR-3 ovarian it was > 100 µM; in the test on HCT-116 colon, 70.2 µM; in the test with SK-MEL-28 melanoma, 64.2 µM.
